Test results taken from publication PMC9084593 (Cell reports, 2022).

Tests used:
GlmM = biological target: T1, GlmM (Streptococcus pneumoniae, UniProt Q04JI8); assay: GlmU-coupled DTNB colorimetric mutase assay, […] nm; format: biochemical; settings: 0.4 mM GlcN-6-P, 2 mM acetyl CoA, 5 mM MgCl2, pH 7.5, 37°C
T1 sequence (Q04JI8 1-450): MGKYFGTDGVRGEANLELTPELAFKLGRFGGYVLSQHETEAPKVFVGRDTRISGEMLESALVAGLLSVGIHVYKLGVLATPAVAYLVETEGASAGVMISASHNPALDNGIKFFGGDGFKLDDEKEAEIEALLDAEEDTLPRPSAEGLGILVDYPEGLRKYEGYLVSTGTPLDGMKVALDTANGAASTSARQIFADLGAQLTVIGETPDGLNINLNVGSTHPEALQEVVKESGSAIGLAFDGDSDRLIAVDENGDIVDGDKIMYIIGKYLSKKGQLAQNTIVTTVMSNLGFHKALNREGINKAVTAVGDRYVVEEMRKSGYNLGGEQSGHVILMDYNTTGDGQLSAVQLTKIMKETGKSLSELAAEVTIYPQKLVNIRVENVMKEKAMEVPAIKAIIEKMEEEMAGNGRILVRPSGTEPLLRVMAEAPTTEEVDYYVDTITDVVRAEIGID

GlmU = GlmU (Streptococcus pneumoniae, UniProt Q04KU2); assay: DTNB colorimetric acetyltransferase assay, […] nm; format: biochemical; settings: 0.4 mM GlcN-1-P, 1 mM acetyl CoA, 5 mM MgCl2, pH 7.5, 37°C
GlmU, sequence (Q04KU2 whole entry): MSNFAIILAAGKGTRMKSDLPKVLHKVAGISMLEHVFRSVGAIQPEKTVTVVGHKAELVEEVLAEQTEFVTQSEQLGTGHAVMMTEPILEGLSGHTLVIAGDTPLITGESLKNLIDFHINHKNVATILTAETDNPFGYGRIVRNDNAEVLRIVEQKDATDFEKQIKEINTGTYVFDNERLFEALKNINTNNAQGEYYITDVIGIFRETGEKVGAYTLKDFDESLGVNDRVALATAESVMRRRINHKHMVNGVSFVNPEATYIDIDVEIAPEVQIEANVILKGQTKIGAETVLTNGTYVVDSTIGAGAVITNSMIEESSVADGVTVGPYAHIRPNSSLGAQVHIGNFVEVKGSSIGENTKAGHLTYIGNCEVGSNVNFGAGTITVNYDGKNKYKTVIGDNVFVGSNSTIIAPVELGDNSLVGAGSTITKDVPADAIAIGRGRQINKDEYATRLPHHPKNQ

Row | SMILES | GlmU-coupled DTNB colorimetric mutase assay, 412 nm (GlmM) | DTNB colorimetric acetyltransferase assay, 412 nm (GlmU)
1 | N[C@H]1C(O)O[C@H](COP(=O)(O)O)[C@@H](O)[C@@H]1O (some centres unmarked) [GlcN-6-P] | The glucosamine-6-phosphate (GlcN-6-P) mutase activity of GlmM was assayed | 
2 | N[C@H]1[C@@H](OP(=O)(O)O)O[C@H](CO)[C@@H](O)[C@@H]1O [GlcN-1-P] |  | The GlcN-1-P acetyltransferase activities of the GlmU and the GlmUE315AH330A variant were measured
